Results from patent US4530840A, “Injectable, long-acting microparticle formulation for the delivery of anti-inflammatory agents” (priority 1982, dated 1985).

Key:
[1] = Saturation solubility in 50 wt % aqueous ethanol; format: physicochemical; details: organic solvent or mixture, 50 wt % of aqueous ethanol
[2] = In vitro release / dissolution of methylprednisolone acetate in 50 wt % aqueous ethanol at 37° C.; format: physicochemical; details: unencapsulated
Procedure: The in vitro release of methylprednisolone acetate from microparticles into a receiving fluid comprising 50 wt % of aqueous ethanol maintained at 37° C. was measured.
Triplicate samples of 20 mg of microparticles were weighed and each sample was placed in an 8-oz bottle containing 150 mL of 50 wt % aqueous ethanol. […] Next, the bottles were sealed with a thin sheet of Teflon and a screw cap to prevent evaporation. The bottles were then placed in an Eberbach shaker bath oscillating at 120 cycles/min and maintained at 37° C. The amount of drug released from the microparticles as a function of time was measured by determining the absorbance of the aqueous ethanol receiving fluid at 247 nm and by using the following equation based on Beer's Law.
methylprednisolone acetate in g/ml.

With `CC(=O)OCC(=O)[C@@]1(O)CC[C@H]2[C@@H]3C[C@H](C)C4=CC(=O)C=C[C@]4(C)[C@H]3[C@@H](O)C[C@@]21C` [Methylprednisolone acetate, 6α-methylprednisolone acetate] the solubility [1] was over 3 mg/mL and the dissolution complete [2] was 30 min.
